PMC6297231 (Nature Communications, 2018)
Like-named read-outs stand apart in the source and are kept apart here. Where no end group is shown, it is not given here.

Tests used:
MOLP8 = assay: Caspase-3/7 activation assay; assay type: cell-based; settings: Homo sapiens, MOLP-8
Protocol: (§1) Cells were plated at 3000 cells/well in 384-well white plates in corresponding cell growth media. […] Caspase-3/7 activation was subsequently determined using a Caspase-Glo 3/7 Reagent (Promega) and viability was assayed using the CellTiter-Glo Reagent (Promega) as described in manufacturer’s instructions. Dose–response curves for caspase-3/7 activation and viability were plotted and analyzed (including EC50 and GI50 determination) using GraphPad Prism.

MV411 = assay: Caspase-3/7 activation assay; assay type: cell-based; settings: Homo sapiens, MV4-11
Protocol: as §1

Mcl-1 [1] = molecular target: T1, Mcl-1 (Homo sapiens, UniProt Q07820); assay: SPR direct binding assay; set-up: 6His-tagged Mcl-1 protein (E171-G327) was immobilized using NTA capture-coupling
Target sequence in this assay (Q07820 171-327): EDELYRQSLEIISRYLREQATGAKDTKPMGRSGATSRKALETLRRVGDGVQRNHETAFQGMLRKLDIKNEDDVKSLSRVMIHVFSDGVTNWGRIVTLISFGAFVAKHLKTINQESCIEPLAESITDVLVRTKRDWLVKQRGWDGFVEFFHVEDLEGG
Protocol: A Biacore T200 instrument (GE Healthcare) was used to monitor binding interactions using a direct binding assay format. 6His-tagged Mcl-1 protein (E171-G327) was immobilized using NTA capture-coupling at a flow rate of 10 μL min^-1 and using an immobilization running buffer containing 10 mM HEPES, 300 mM NaCl, 1 mM TCEP, and 0.05% Tween-20 at 25 °C. […] Approximately 300 response units of Mcl-1 protein (2 μg mL^-1 in immobilization running buffer) were immobilized using the ‘aim for’ function in the T200 Control Software (GE Healthcare). Remaining reactive esters were blocked using a 7 min injection of 1 M ethanolamine. Reference flow cells were prepared without protein. All binding measurements were performed in 10 mM Tris, pH 7.5, 300 mM NaCl, 1 mM TCEP, 1% DMSO, and 0.02% Tween-20 at 25 °C at a flow rate of 30 μL min^-1. Buffer was primed through the instrument overnight to stabilize the surface before subsequent assay steps. Prior to kinetic analysis, solvent calibration and double referencing subtractions were made to eliminate bulk refractive index changes, injection noise, and data drift. Affinity and binding kinetic parameters were determined by global fitting to a 1:1-binding model within the Biacore T200 Evaluation Software (GE Healthcare).

Mcl-1 [2] = molecular target: T1, Mcl-1; assay: 2D protein-observed NMR titration (TROSY); assay type: binding; set-up: The 6His-TEV-Mcl-1(162–326) construct in a pET vector was expressed in BL21-GOLD cells; 6His-TEV (N, cleaved yes); made in house; host or cells: E. coli BL21-GOLD
Protocol: The 6His-TEV-Mcl-1(162–326) construct in a pET vector was expressed in BL21-GOLD cells and inducted by IPTG. ^15N-labeled GS-Mcl-1 was obtained by growing cells in Isogro-15N (Sigma-Aldrich) media (5 g L^-1) containing 50 µg mL^-1 Kanamycin and 12.5 µg mL^-1 Tetracycline. Expression was induced at OD^600 = 0.8 with 0.1 mM IPTG. Cells were then incubated overnight at 30 °C, harvested by centrifugation and lysed by sonication in buffer H (40 mM Hepes pH 8.0, 300 mM NaCl, 10 mM imidazole, 1 mM TCEP), supplemented with 0.3 mg mL^-1 lysozyme, 2.5 U mL^-1 benzonase, and EDTA-free protease inhibitors (Roche). The sample was centrifuged and supernatant collected and incubated with Ni-NTA resin (60 min at 4 °C). […]
NMR spectra were recorded at 298 K on a Bruker Avance 600 MHz spectrometer running Topspin 2.3 equipped with a 5 mm TCI Cryoprobe with Z-axis gradients. […] Binding was detected by ^1H–^15N 2D Transverse relaxation optimized spectroscopy (TROSY) spectra of the protein (F2 × F1) 2048 × 50 complex pairs (in Echo-Antiecho mode), 12019 × 1800 Hz sweep width, 85.2 ms × 27.8 ms acquisition times. Compound titration was recorded from fresh compound stock in DMSO-d6, and spectra were recorded at ligand concentrations of 0.04, 0.08, 0.16, 0.32, 0.63, and 1.24 mM. […]
Target sequence in this assay (Q07820 162-326): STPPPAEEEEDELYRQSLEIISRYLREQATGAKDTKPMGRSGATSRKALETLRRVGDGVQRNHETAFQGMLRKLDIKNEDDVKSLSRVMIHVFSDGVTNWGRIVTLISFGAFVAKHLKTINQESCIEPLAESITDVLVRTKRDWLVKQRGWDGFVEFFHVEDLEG

Mcl-1 [3] = molecular target: T1, Mcl-1; assay: TR-FRET binding assay; set-up: N-terminal GST-tagged-Mcl-1 protein from Mcl-1 (E171-G327); made in house; host or cells: E. coli
Protocol: Percent inhibition was calculated based upon min (control compound) vs. max (DMSO) according to Eq. (2) and the IC50 was derived the smart fit curve (Genedata screener) of % inhibition vs. concentration. Ki values were calculated from Eq.
Target sequence in this assay (Q07820 171-327): as the sequence (Q07820 171-327) above

H23 = assay: Caspase-3/7 activation assay; assay type: cell-based; settings: Homo sapiens, NCI-H23
Protocol: as §1

[4] = molecular target: T2, N-terminal GST-tagged Bcl-xL protein from Bcl-xL (1-209) (UniProt Q07817-1 1-209); assay: AlphaScreen or HTRF; TR-FRET: GST-tagged protein with Eu-labeled anti-GST antibody and HyLite Fluor 647-labeled peptide; 384-well plates, 24 °C, 120-180 min; how the peptide Kd was determined is not told; settings: both partners purified
T2 construct: Bcl-xL, residues 1-209; also called GST-Bcl-xl; not shown: GST, N-terminal, kept
T2 sequence (Q07817 1-209): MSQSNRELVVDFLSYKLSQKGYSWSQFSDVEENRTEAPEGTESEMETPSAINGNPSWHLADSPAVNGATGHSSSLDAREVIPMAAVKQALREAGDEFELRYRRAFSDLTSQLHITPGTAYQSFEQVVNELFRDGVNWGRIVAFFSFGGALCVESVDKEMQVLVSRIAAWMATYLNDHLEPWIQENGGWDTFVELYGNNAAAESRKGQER

[5] = molecular target: T3, N-terminal GST-tagged-Mcl-1 protein from Mcl-1 (E171-G327) (human, UniProt Q07820 171-327); assay: as above; settings: both partners purified
T3 construct: Mcl-1, residues E171-G327; also called GST-Mcl-1; not shown: GST, N-terminal, kept
T3 sequence (Q07820 171-327): as the sequence (Q07820 171-327) above

[6] = molecular target: T4, N-Terminal 6His-tagged Bfl-1 protein from Bfl-1 (M1-K151) (UniProt Q16548 1-151); assay: AlphaScreen or HTRF; TR-FRET: His-tagged protein with Eu-labeled anti-His antibody and HyLite Fluor 647-labeled peptide; 384-well plates, 24 °C, 120-180 min; how the peptide Kd was determined is not told; settings: both partners purified
T4 construct: Bfl-1 (Bfl-1/A1), residues M1-K151; also called His-Bfl-1; source: E. coli, purified (Ni-NTA resin, size-exclusion chromatography); not shown: 6His, N-terminal, kept
T4 sequence (looked up): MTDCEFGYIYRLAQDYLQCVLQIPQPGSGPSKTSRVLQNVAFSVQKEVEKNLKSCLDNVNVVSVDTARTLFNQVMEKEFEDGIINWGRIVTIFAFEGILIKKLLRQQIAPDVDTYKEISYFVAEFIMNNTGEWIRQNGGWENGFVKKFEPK

Cc1nn(C)c(C)c1-c1cccc2c(CCCOc3cccc4ccccc34)c(C(=O)O)[nH]c12 [Compound 2, reference compound]
EC50 (MOLP8; caspase activation, Mcl-1-dependent cell line, read-out: MOLP-8, EC50): > 31500 nM
EC50 (MOLP8; mean of log transformed data, read-out: MOLP-8 caspase pEC50 (converted)): > 31600 nM
EC50 (MV411; caspase activation, Mcl-1-dependent cell line, read-out: MV4-11, EC50): > 31500 nM
EC50 (MV411; mean of log transformed data, read-out: MV4-11 caspase pEC50 (converted)): > 31600 nM
Kd (Mcl-1 [1]; mean of log transformed data, read-out: MCL1 SPR pKd (converted)): 646 nM
Kd (Mcl-1 [1]; read-out: Mcl-1 SPR, Kd): 650 nM
Kd (Mcl-1 [2]; fast exchange shifts, second weaker binding event, read-out: Kd, binding event 2): 141000 ± 8000 nM
Kd (Mcl-1 [2]; slow exchange binding, read-out: Kd, binding event 1): < 5000 nM
IC50 (Mcl-1 [3]; mean of log transformed data, read-out: MCL1 FRET pIC50 (converted)): 288 nM
IC50 (Mcl-1 [3]; read-out: Mcl-1 FRET, IC50): 290 nM
EC50 (H23; caspase activation, Mcl-1-dependent cell line, read-out: NCI-H23, EC50): > 31500 nM
EC50 (H23; mean of log transformed data, read-out: NCI-H23 caspase pEC50 (converted)): > 31600 nM

B1: HyLite Fluor 647-labeled BAK peptide C(Hilyte647 C2 Maleimide)-GGGQVGRQLAIIGDDINR (peptide)
peptide: C(HiLyte Fluor 647 C2 maleimide)GGGQVGRQLAIIGDDINR
notes: added N-terminal cysteine that carries the dye, and glycine spacer; Bak BH3 stretch; also called Hylite Bak peptide
Kd [4]: 10 nM

B2: HyLite Fluor 647-labeled Bim peptide C (Hilyte647 C2 Maleimide)-WIAQELRRIGDEFN (peptide)
peptide: C(HiLyte Fluor 647 C2 maleimide)WIAQELRRIGDEFN
notes: added N-terminal cysteine that carries the dye; Bim BH3 stretch; also called Hylite Bim peptide
Kd [5]: 1.5 nM
Kd [6]: 10 nM
